Data: patent US8198322B2, “Apoptotic and anti-tumor activities of metallo-salens” (Board of Regents, The University of Texas System, priority 2008, dated 2012)
Where “and” joins values, the source holds several entries; their conditions need not be identical. Equal entries are not always repeated. Entries after “also recorded” stand apart in the source; their conditions may differ.

Tests used:
MCF-7 cells [1] = assay: Cell viability assay (MTT, DIC microscopy) at 20 μM; type: cell-based, human; parameters: key to Summary of cell viability activities (active/inactive): Y and N indicates active and inactive compounds respectively; Y and N indicates active and inactive compounds respectively; conditions: for Summary of cell viability activities (active/inactive): MCF-7 cells, 20 μM, 24-96 hrs, MTT; for effect on cell viability (in words): MCF-7, 20 μM, up to 96 hrs
Experimental: (A-F): MCF-7 cells were treated with 20 μM metallo-salens and incubated for varying time periods (24-96 hrs). Viable cells were quantified using MTT assay. The percent viable cells (relative to control, treated with equivalent amount of DMSO) were plotted as a function of time for each compound. This experiment was repeated twice with 8 replicate treatments each time. Bars indicates standard errors of mean (SEM). Curves 1-42 in FIGS. 2A-2F, represent the viability curves for compounds 1-42 respectively. (A′-F′) DIC images of the corresponding MCF-7 cells that were treated with DMSO (control panel), or with 20 μM Mn(III)- and Fe(III)-salen complexes for 72 hrs showing the visual effects on cellular morphology and growth/death.
Cell viability assay: Approximately 10,000 MCF-7 cells were seeded into each well of a 96 well micro titer plate and incubated 24 hrs in presence of 150 μL DMEM. An additional 50 μL DMEM containing required amount of each metallo-salen to obtain 20 μM final concentrations (in 200 μL final volume) in 8 replicate wells were added. Control wells were treated with equivalent amount of dimethylsulfoxide (DMSO). The viability of the cells was assayed at 24, 48, 72 and 96 hrs post treatment by using both microscopic observation and MTT assay. For microscopic observation cells were stained with trypan blue for at least 10 minute and observed under Differential Interference Contrast (DIC) setting of a fluorescence microscope (Nikon Eclipse TE2000-U, Japan). The MTT assay was performed as described previously^42. In brief, 20 μL MTT (5 mg/ml in PBS) was added into each wells and incubated for 2 hrs under normal growth condition to allow the viable cell to convert MTT to formazan. Then the media was discarded and formazan crystals were dissolved by adding 100 μL of DMSO and incubating 2 hrs with continuous shaking. The absorbance of the lysates were directly measured at 560 nm using a micro plate reader (Fluostar-omega, BMG Labtech). The absorbance values (which are proportional to the viable cell) are plotted as a function of time. The studies were repeated twice with 8 replicates each time.
The inventors studied the effect of Mn(III)-salen and Fe(III)-salen derivatives on the cell viability of cultured breast cancer cells MCF-7 in order to investigate the biochemical effects of the derivatives. The cells were incubated alone or with 20 μM of each of the metallo-salen derivatives separately (compounds 1-45) for varying time periods (0-96 hrs). The viable cells were quantified using MTT assay and the percent of cell survived (relative to the control untreated cells) were plotted against time (FIGS. 2A-2F).

MCF-7 cells [2] = assay: Cytotoxicity assay (IC50 measurement, MTT); type: cell-based, human; conditions: MCF-7, 96 hrs, read-out: IC50 values for different complexes in MCF-7 cells
Experimental: Cytotoxicity assay (IC50 measurement): The cytotoxicity of Fe(III)-salen and its derivatives was determined by using MTT assay as described previously^42. In brief, approximately 10,000 MCF-7 cells were seeded into each well of a 96 well micro titer plate and incubated 24 hrs in presence of 150 μL DMEM. An additional 50 μL DMEM containing required amount of each metallo-salen to obtain 0.05 to 60 μM final concentration (in 200 μL final volume) in 8 replicate wells were added. Control wells were treated with equivalent amount of DMSO. After 96 hrs of incubation, 20 μL of MTT (5 mg/mL) was added into each well and cell viability was assayed by measuring the formazan absorption at 560 nm as described above. The absorbance (at 560 nm) values were plotted against concentration of metallo-salens to determine the IC50. The studies were repeated twice with 8 replicates each time.
The concentration of the metal-complexes at which the conversion of MTT to formazan by viable cells is reduced by 50% compared to control cells is defined as the IC50. The percent of cell survival relative to the control cells were plotted as a function of concentration of the metallo-salen derivatives.

Molecule	Summary of cell viability activities (active/inactive) (MCF-7 cells [1])	IC50 (MCF-7 cells [2])	effect on cell viability (in words) (MCF-7 cells [1])
5,5′-Dimethoxysalnaphen Fe(III) chloride [compound 42]	Y (42)	1.24 µM	–
N.N.[Cl][Pt][Cl] [cis-platin, Cis-diaminodichloro-platinum(II), reference compound]	–	~20 µM	–
CC(=O)[O-].[Mn+3].[O-]c1ccccc1C=NCCN=Cc1ccccc1[O-] [compound 1, Mn(III)-salen acetate]	Y^b (1)	20.4 µM and 20.5 µM	–
CC(=O)[O-].[Mn+3].[O-]c1c(O)cccc1C=NCCN=Cc1cccc(O)c1[O-] [compound 2, 3,3′-Dihydroxysalen Mn(III) acetate]	Y (2)	37 µM	–
CC(=O)[O-].[Mn+3].[O-]c1cc(O)ccc1C=NCCN=Cc1ccc(O)cc1[O-] [compound 3, 4,4′-Dihydroxysalen Mn(III) acetate]	N^b (3)	–	did not have any significant effect on cell viability; also recorded: not active
CC(=O)[O-].[Mn+3].[O-]c1ccc(O)cc1C=NCCN=Cc1cc(O)ccc1[O-] [compound 4, 5,5′-Dihydroxysalen Mn(III) acetate]	Y (4)	43.1 µM	effective in inducing cell death
CC(=O)[O-].COc1cccc(C=NCCN=Cc2cccc(OC)c2[O-])c1[O-].[Mn+3] [compound 5, 3,3′-Dimethoxysalen Mn(III) acetate]	Y (5)	17.7 µM	–
CC(=O)[O-].COc1ccc([O-])c(C=NCCN=Cc2cc(OC)ccc2[O-])c1.[Mn+3] [compound 7, 5,5′-Dimethoxysalen Mn(III) acetate]	Y (7)	16.1 µM	–
CC(=O)[O-].[Mn+3].[O-]c1ccccc1C=Nc1ccccc1N=Cc1ccccc1[O-] [compound 8, Mn(III)-salphen acetate]	Y (8)	15 µM	–
CC(=O)[O-].[Mn+3].[O-]c1cc(O)ccc1C=Nc1ccccc1N=Cc1ccc(O)cc1[O-] [compound 10, 4,4′-Dihydroxysalphen Mn(III) acetate]	N (10)	–	not active
CC(=O)[O-].[Mn+3].[O-]c1ccc(O)cc1C=Nc1ccccc1N=Cc1cc(O)ccc1[O-] [compound 11, 5,5′-Dihydroxysalphen Mn(III) acetate]	Y (11)	45.6 µM	effective in inducing cell death
CC(=O)[O-].COc1cccc(C=Nc2ccccc2N=Cc2cccc(OC)c2[O-])c1[O-].[Mn+3] [compound 12, 3,3′-Dimethoxysalphen Mn(III) acetate]	Y (12)	22.2 µM	–
CC(=O)[O-].COc1ccc(C=Nc2ccccc2N=Cc2ccc(OC)cc2[O-])c([O-])c1.[Mn+3] [compound 13, 4,4′-Dimethoxysalphen Mn(III) acetate]	Y (13)	15.5 µM and 15.6 µM	most effective on inducing cell death
CC(=O)[O-].COc1ccc([O-])c(C=Nc2ccccc2N=Cc2cc(OC)ccc2[O-])c1.[Mn+3] [compound 14, 5,5′-Dimethoxysalphen Mn(III) acetate]	Y (14)	55.9 µM	–
CC(=O)[O-].[Mn+3].[O-]c1ccccc1C=Nc1cc2ccccc2cc1N=Cc1ccccc1[O-] [compound 15, Mn(III)-salnaphen acetate]	Y (15)	15.5 µM and 15.6 µM	most effective on inducing cell death
CC(=O)[O-].[Mn+3].[O-]c1ccc(O)cc1C=Nc1cc2ccccc2cc1N=Cc1cc(O)ccc1[O-] [compound 18, 5,5′-Dihydroxysalnaphen Mn(III) acetate]	N (18)	–	inactive
[Cl-].[Fe+3].[O-]c1c(O)cccc1C=NCCN=Cc1cccc(O)c1[O-] [compound 23, 3,3′-Dihydroxysalen Fe(III) chloride]	N (23)	–	–
[Cl-].[Fe+3].[O-]c1cc(O)ccc1C=NCCN=Cc1ccc(O)cc1[O-] [compound 24, 4,4′-Dihydroxysalen Fe(III) chloride]	N (24)	–	–
[Cl-].[Fe+3].[O-]c1ccc(O)cc1C=NCCN=Cc1cc(O)ccc1[O-] [compound 25, 5,5′-Dihydroxysalen Fe(III) chloride]	N (25)	–	–
COc1cccc(C=NCCN=Cc2cccc(OC)c2[O-])c1[O-].[Cl-].[Fe+3] [compound 26, 3,3′-Dimethoxysalen Fe(III) chloride]	N (26)	–	did not show any significant effect on cell viability
[Cl-].[Fe+3].[O-]c1cc(O)ccc1C=Nc1ccccc1N=Cc1ccc(O)cc1[O-] [compound 31, 4,4′-Dihydroxysalphen Fe(III) chloride]	N (31)	–	did not have any effects on cell viability
[Cl-].[Fe+3].[O-]c1ccc(O)cc1C=Nc1ccccc1N=Cc1cc(O)ccc1[O-] [compound 32, 5,5′-Dihydroxysalphen Fe(III) chloride]	N (32)	–	did not have any effects on cell viability
[Cl-].[Fe+3].[O-]c1cc(O)ccc1C=Nc1cc2ccccc2cc1N=Cc1ccc(O)cc1[O-] [compound 38, 4,4′-Dihydroxysalnaphen Fe(III) chloride]	N (38)	–	did not have any effects on cell viability
[Cl-].[Fe+3].[O-]c1ccc(O)cc1C=Nc1cc2ccccc2cc1N=Cc1cc(O)ccc1[O-] [compound 39, 5,5′-Dihydroxysalnaphen Fe(III) chloride]	N (39)	–	did not have any effects on cell viability
[Cl-].[Fe+3].[O-]c1ccccc1C=NCCCN=Cc1ccccc1[O-] [compound 43, Bis(salicylidene)propanediamine Fe(III) chloride]	–	–	almost no cell killing activity
[Cl-].[Fe+3].[O-]c1ccccc1C=NCCCCN=Cc1ccccc1[O-] [compound 44, Bis(salicylidene)butanediamine Fe(III) chloride]	–	–	almost no cell killing activity
Fe(III)-carboxysalphen] chloride [compound 45]	–	–	almost no cell killing activity
